The source of these data is patent US12590123B2, “Compounds and methods for treating cancer, viral infections, and allergic conditions” (Washington University, priority 2019, dated 2026).

Holding throughout (assay type): biochemical
The target of test [1] is T1, recombinant HGFA serine protease domain (Homo sapiens, UniProt Q04756).
T1 construct: His6 tag (N); seven amino acid spacer plus TEV cleavage site (N); made in house; host or cells: High 5 insect cells (baculovirus; Sf9 for virus production)
T1 sequence (Q04756 373-655): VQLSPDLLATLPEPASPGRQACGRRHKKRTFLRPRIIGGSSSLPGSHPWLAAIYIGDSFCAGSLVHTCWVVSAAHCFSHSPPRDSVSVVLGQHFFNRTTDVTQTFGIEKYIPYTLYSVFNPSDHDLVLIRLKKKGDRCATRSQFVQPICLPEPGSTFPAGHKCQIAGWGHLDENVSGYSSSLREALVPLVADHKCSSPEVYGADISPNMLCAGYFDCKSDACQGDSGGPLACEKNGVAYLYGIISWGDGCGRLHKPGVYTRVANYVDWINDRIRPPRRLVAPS
The experiment in a line: Fluorescent kinetic enzyme assay of HGFA activity (Boc-QLR-AMC). The source says: The compounds prepared in Examples 1 to 8 were subjected to a series of inhibitions studies. The compounds were first tested in an HGFA enzymatic assay using the fluorogenic substrate Boc-QLR-AMC with a recombinant form of the HGFA serine protease domain.
This PCR product was cloned into the SfoI-HindIII sites of a modified pFastBac HT baculovirus expression vector (Addgene, Cambridge, MA). This vector contains a six amino His tag followed by a seven amino spacer and a seven amino acid TEV cleavage site placed immediately downstream of the honey bee melittin signal peptide. Using a modified Bac to Bac Expression System (Life Technologies, Carlsbad, CA), recombinant HGFA bacmids were obtained by transforming DH10Bac Escherichia coli cells. To obtain HGFA containing baculovirus, purified bacmids were transfected into Sf9 insect cells. After 5 days in culture at 27° C., media was harvested from transfected Sf9 cells. This media was used to prepare baculovirus infected insect cells (BIICs). These BIIICs were used to infect High 5 insect cells. Four days post infection, media was harvested, and recombinant protein was prepared as follows. Media was chilled to 4° C. and spun at 4000×g for 20 minutes (all subsequent steps were performed at 4° C. unless noted). Clarified media was passed first through a Whatman GF/B 1 um (#1821-047, GE Healthcare Life Sciences, Piscataway, NJ) and then a 0.22 μm PES membrane (#99955, TPP Techno Plastic Products AG, Trasadingen, Switzerland) and then concentrated using a Pall Centramate tangential flow system and Centramate T-series Cassette (#OS010T12, Pall Corporation, Port Washington, NY). Concentrated media was then buffer exchanged in two steps, five volumes of 50 mM Na-phosphate, 500 mM NaCl, pH 6.2, followed by five volumes of 50 mM Na-phosphate, 500 mM NaCl, pH 7.5. […] After mixing this slurry for 12 hours, nickel agarose beads were allowed to settle by gravity and then loaded into a column. Beads were washed with buffer (25 mM Na-phosphate, 500 mM NaCl, 25 mM imidazole, pH 8) and the bound protein eluted using (25 mM Na-phosphate, 500 mM NaCl, 250 mM imidazole, pH 8). Using a Amicon Ultra-4 Centrifugal filters (#UFC801008, Merck Millipore, Ltd., Tullagreen, Ireland), peak protein fractions were concentrated and run over a Superdex-200 10/300 GL column (GE Healthcare Life Sciences, Piscataway, NJ) in 10 mM Tris, 200 mM NaCl, 0.2 mM EDTA, pH 8. HGFA containing fractions were pooled, concentrated, made 50% glycerol, and stored at minus 20° C. Protein was quantitated using a modified Lowry protein assay (#500-0006, Bio-Rad Laboratories, Hercules, CA) and specific activity determined using Boc-QLR-AMC substrate.
Fluorescent kinetic enzyme assays of HGFA, matriptase, and hepsin activity: Compounds (0-20 μM final concentration in reaction) were diluted in DMSO (2% DMSO final concentration in reaction) and then mixed with either recombinant HGFA serine protease domain, matriptase (#3946-SE-010, R&D Systems, Minneapolis, Minnesota), or activated hepsin* (#4776-SE-010, R&D Systems, Minneapolis, Minnesota) in black 384 well plates (Corning #3575. Coming, NY). The final assay concentration for HGFA, matriptase, and hepsin, were 6.25 nM, 0.2 nM, and 0.3 nM, respectively in TNC buffer (25 mM Tris, 150 mM NaCl, 5 mM CaCl2, 0.01% Triton X-100, pH 8). After thirty minutes of incubation at room temperature, Boc-QLR-AMC substrate was added (HGFA assay) or Boc-QAR-AMC substrate (matriptase, and hepsin assays). Fluorescence (excitation at 380 nm and emission at 460 nm) was kinetically measured at room temperature over a 1 hour time period using a Biotek Synergy 2 plate reader (Winnoski, VT). From a plot of the mean reaction velocity versus the inhibitor concentration, a non-linear four parameter curve fit was performed using GraphPad Prism (GraphPad Software, San Diego, CA) to determine inhibitor IC50s. The IC50 values were determined from the average of three or more separate experimental determinations. […]

A further test deals with T2, matriptase (Homo sapiens, UniProt Q9Y5Y6).
T2 construct: purchased R&D Systems 3946-SE-010
T2 sequence (Q9Y5Y6 615-855 limits assumed): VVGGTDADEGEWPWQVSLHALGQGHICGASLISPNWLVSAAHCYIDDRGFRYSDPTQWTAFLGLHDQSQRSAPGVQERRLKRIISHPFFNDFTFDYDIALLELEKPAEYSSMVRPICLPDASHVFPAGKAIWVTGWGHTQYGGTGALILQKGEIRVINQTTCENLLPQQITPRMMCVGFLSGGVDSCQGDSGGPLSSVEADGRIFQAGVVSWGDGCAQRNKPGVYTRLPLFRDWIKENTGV
Put plainly: Fluorescent kinetic enzyme assay of matriptase activity (Boc-QAR-AMC).

The next test addresses T3, activated hepsin (Homo sapiens, UniProt P05981).
T3 construct: purchased R&D Systems 4776-SE-010
The experiment in a line: Fluorescent kinetic enzyme assay of hepsin activity (Boc-QAR-AMC).

Another test deals with recombinant thrombin (Homo sapiens, UniProt P00734). Put plainly: Chromogenic kinetic enzyme assay of thrombin (S2238). The protocol: (§1) Using GraphPad Prism (GraphPad Software, San Diego, CA), a four-parameter curve fit was used to determine the inhibitor IC50s from a plot of the mean reaction velocity versus the inhibitor concentration. The IC50 values represent the average of three or more separate experimental determinations. Apparent Ki values were calculated from the IC50 values using the Cheng and Prusoff equation (Ki=IC50/(1+[S]/Km).
(§2) Using GraphPad Prism version 6.04 software program, (GraphPad Software, San Diego, CA, graphpad.com), a four parameter curve fit was used to determine the inhibitor IC50s from a plot of the mean reaction velocity versus the inhibitor concentration.
(§3) Fluorescent inhibitor and chromogenic proteolytic assays were performed for compounds prepared in Example 11 in general accordance with the procedures described in Example 9.

The target in the next test is Factor Xa (Homo sapiens, UniProt P00742). The experiment in a line: Chromogenic kinetic enzyme assay of Factor Xa (S2222). To be noted: Table 2; chromogenic assay; read-out: Factor Xa* (IC50 nM). As to the method:
as §1, §2, §3

The mark [2] stands for this setting: Table 2, chromogenic assay, read-out: Thrombin* (IC50 nM).
Where [3] appears, read: Table 2, read-out: HGFA (IC50 nM).
Setting [4] is: Table 2, read-out: Matriptase (IC50 nM).
[5] abbreviates: Table 2, read-out: Hepsin (IC50 nM).

Like-named read-outs stand apart in the source and are kept apart here.

T3 sequence (P05981 163-417 limits assumed): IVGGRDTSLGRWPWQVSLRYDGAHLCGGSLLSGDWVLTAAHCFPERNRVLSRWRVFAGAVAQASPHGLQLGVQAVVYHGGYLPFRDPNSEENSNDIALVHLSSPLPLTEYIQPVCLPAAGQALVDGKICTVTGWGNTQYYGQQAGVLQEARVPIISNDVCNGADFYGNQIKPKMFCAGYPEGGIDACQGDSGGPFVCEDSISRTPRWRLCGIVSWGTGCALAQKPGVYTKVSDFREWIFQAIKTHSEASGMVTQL
T3 sequence (P05981 1-162 partner limits assumed): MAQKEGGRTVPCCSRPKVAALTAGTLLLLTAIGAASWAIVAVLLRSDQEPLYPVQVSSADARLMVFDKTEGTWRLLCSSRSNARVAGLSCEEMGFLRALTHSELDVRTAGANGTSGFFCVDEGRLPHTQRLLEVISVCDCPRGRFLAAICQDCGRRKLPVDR
Factor Xa, sequence (P00742 235-488 limits assumed): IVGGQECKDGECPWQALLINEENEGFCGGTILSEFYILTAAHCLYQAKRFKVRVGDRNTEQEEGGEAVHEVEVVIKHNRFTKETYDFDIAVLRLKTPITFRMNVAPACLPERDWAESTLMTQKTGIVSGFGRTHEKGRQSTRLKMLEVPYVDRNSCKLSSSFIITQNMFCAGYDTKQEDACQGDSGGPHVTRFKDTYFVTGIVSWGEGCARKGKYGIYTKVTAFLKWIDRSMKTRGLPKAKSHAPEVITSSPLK
Factor Xa, sequence (P00742 41-179 partner limits assumed): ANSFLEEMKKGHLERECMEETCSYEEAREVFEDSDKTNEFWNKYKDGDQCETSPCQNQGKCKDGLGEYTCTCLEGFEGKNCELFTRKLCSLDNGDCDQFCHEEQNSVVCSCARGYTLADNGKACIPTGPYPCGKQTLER

One may read the IC50 as the concentration needed to halve the response being measured. As to `CC(C)C[C@H](NC(=O)OC1(Cc2ccccc2)CCNCC1)C(=O)N[C@@H](CCCNC(=N)N)C(=O)c1nc2ccccc2s1` [Compound 8b, 4-benzylpiperidin-4-yl((S)-1-(((S)-1-(benzo[d]thiazol-2-yl)-5-guanidino-1-oxopentan-2-yl)amino)-4-methyl-1-oxopentan-2-yl)carbamate], the IC50 in test [1] (Table 3, average of three experiments, read-out: HGFA IC50) is 1200 nM; at matriptase (Example 12, read-out: IC50 for matriptase), 30 nM; at activated hepsin (Example 12, read-out: IC50 for hepsin), 0.6 nM; on recombinant thrombin (Table 3, average of three experiments, read-out: Thrombin IC50) it was above 20000 nM.

For `CSCCC[C@H](NC(C)=O)C(=O)N[C@@H](CCC(N)=O)C(=O)N[C@@H](Cc1ccccc1)C(=O)N[C@@H](CCCNC(=N)N)C(=O)c1nc2ccccc2s1` [MM3130, Ac-MQFR-kbt], on recombinant thrombin (setting [2]), the IC50 was above 20000 nM.

As to `CC(=O)N[C@@H](CCC(N)=O)C(=O)N[C@@H](Cc1ccccc1)C(=O)NC(CCCNC(=N)N)C(=O)c1nc2ccccc2s1` (stereo partly shown) [MM3144, Ac-QFR-kbt], the IC50 on recombinant thrombin (setting [2]) is above 20000 nM.

On to `CC(C)C[C@@H]1NC(=O)[C@@H](N)CC(=O)NCCCC[C@@H](C(=O)N[C@@H](CCCNC(=N)N)C(=O)c2nc3ccccc3s2)NC1=O` [VD2055, (3S,6S,14S)-6-amino-N—((S)-1-(benzo[d]thiazol-2-yl)-5-guanidino-1-oxopentan-2-yl)-3-isobutyl-2,5,8-trioxo-1,4,9-triazacyclotetradecane-14-carboxamide], for which the IC50 in test [1] (setting [3]) was 11400 nM; at matriptase (setting [4]) it was 0.86 nM; on Factor Xa, 1550 nM; at activated hepsin (setting [5]) it was 0.46 nM.

Turning to `CC(=O)N[C@H]1CCCCNC(=O)CC[C@@H](C(=O)N[C@@H](CCCNC(=N)N)C(=O)c2nc3ccccc3s2)NC(=O)[C@H](CC(C)C)NC1=O` [VD2064, (2S,5S,14S)-14-acetamido-N—((S)-1-(benzo[d]thiazol-2-yl)-5-guanidino-1-oxopentan-2-yl)-2-isobutyl-3,8,15-trioxo-1,4,9-triazacyclopentadecane-5-carboxamide], the IC50 in test [1] (setting [3]) was found to be 4470 nM; at matriptase (setting [4]) it was 4.4 nM; at Factor Xa it was 723 nM; on activated hepsin (setting [5]) it was 1.7 nM.

As for `CC(=O)N[C@H]1CCCCNC(=O)C[C@@H](C(=O)N[C@@H](CCCNC(=N)N)C(=O)c2nc3ccccc3s2)NC(=O)[C@H](CC(C)C)NC1=O` [VD2167, (2S,5S,13S)-13-acetamido-N—((S)-1-(benzo[d]thiazol-2-yl)-5-guanidino-1-oxopentan-2-yl)-2-isobutyl-3,7,14-trioxo-1,4,8-triazacyclotetradecane-5-carboxamide], the half-maximal inhibitory concentration (IC50) stood at 19.6 nM at matriptase (setting [4]), 1160 nM at Factor Xa and 25.1 nM at activated hepsin (setting [5]).

`CC(=O)N[C@H]1CCC(=O)NCCCC[C@@H](C(=O)N[C@@H](CCCNC(=N)N)C(=O)c2nc3ccccc3s2)NC(=O)[C@H](CC(C)C)NC1=O` [VD2169, (2S,5S,14S)-14-acetamido-N—((S)-1-(benzo[d]thiazol-2-yl)-5-guanidino-1-oxopentan-2-yl)-2-isobutyl-3,11,15-trioxo-1,4,10-triazacyclopentadecane-5-carboxamide]: the figures for the IC50 on matriptase (setting [4]), on Factor Xa and on activated hepsin (setting [5]) were 3.1 nM, 1710 nM and 8.4 nM, respectively.

In the case of `CC(=O)N[C@H]1CC(=O)NCCCC[C@@H](C(=O)N[C@@H](CCCNC(=N)N)C(=O)c2nc3ccccc3s2)NC(=O)[C@H](C)NC1=O` [VD3141, (3S,6S,14S)-6-acetamido-N—((S)-1-(benzo[d]thiazol-2-yl)-5-guanidino-1-oxopentan-2-yl)-3-methyl-2,5,8-trioxo-1,4,9-triazacyclotetradecane-14-carboxamide], the concentration for half-maximal inhibition (IC50) in test [1] (setting [3]) is 13700 nM; on matriptase (setting [4]), 2.5 nM; at activated hepsin (setting [5]), 8.8 nM; on recombinant thrombin (setting [2]) it was above 20000 nM.

With `CC(=O)N[C@H]1Cc2ccc(cc2)OC/C=C\CNC(=O)CC[C@@H](C(=O)N[C@@H](CCCNC(=N)N)C(=O)c2nc3ccccc3s2)NC(=O)[C@H](CC(C)C)NC1=O` [VD4018, (11S,14S,17S,Z)-17-acetamido-N—((S)-1-(benzo[d]thiazol-2-yl)-5-guanidino-1-oxopentan-2-yl)-14-isobutyl-8,13,16-trioxo-2-oxa-7,12,15-triaza-1(1,4)-benzenacyclooctadecaphan-4-ene-11-carboxamide], the values for the IC50 at matriptase (setting [4]), on Factor Xa and on activated hepsin (setting [5]) were 9.84 nM, 1240 nM and 6.31 nM, respectively.

For the molecule `CC(=O)N[C@H]1CCCCn2cc(nn2)C[C@H](C(=O)N[C@H](CCCNC(=N)N)C(=O)c2nc3ccccc3s2)NC(=O)[C@H](CC(C)C)NC1=O` [VD4118B], the IC50 in test [1] (setting [3]) came out at 10900 nM; at matriptase (setting [4]), 91.2 nM; at Factor Xa, 9540 nM; at activated hepsin (setting [5]), 137 nM.

For the molecule `CC(=O)N[C@H]1CCCCn2cc(nn2)C[C@H](C(=O)N[C@@H](CCCNC(=N)N)C(=O)c2nc3ccccc3s2)NC(=O)[C@H](CC(C)C)NC1=O` [VD4118], the concentration for half-maximal inhibition (IC50) in test [1] (setting [3]) was 15600 nM; on matriptase (setting [4]), 19.5 nM; on Factor Xa it was 1930 nM; at activated hepsin (setting [5]) it was 117 nM.

Turning to `CC(=O)N[C@H]1Cc2ccc(cc2)OCCCC[C@@H](C(=O)N[C@@H](CCCNC(=N)N)C(=O)c2nc3ccccc3s2)NC(=O)[C@@H](Cc2c[nH]c3ccccc23)NC1=O` [VD4162B], the 50% inhibitory concentration (IC50) at Factor Xa came out at 1110 nM; at recombinant thrombin (setting [2]) it was 14600 nM.
